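Five compound concentrations were applied to cells in 96-well plates for 48 hours; endpoints were derived by simple linear interpolation of the resulting dose-response curve. At the GI50, growth is halved. Definition used: TGI = concentration required for complete inhibition of growth.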
What was measured:
Test in all cases: growth of human tumour cells (NCI), 48 h
[1] = system: ACHN renal
[2] = system: COLO 205 colon
[3] = system: EKVX NSCLC
[4] = system: HCC-2998 colon
[5] = system: HS 578T breast
[6] = system: NCI/ADR-RES ovarian
[7] = system: SF-295 CNS
[8] = system: SK-MEL-2 melanoma
[9] = system: UACC-62 melanoma
[10] = system: UO-31 renal

CC1(C)O[C@H](C(=O)O)[C@@H](C(=O)O)O1
TGI [1]: > 100 µM | TGI [2]: > 100 µM | TGI [3]: > 100 µM | TGI [4]: > 100 µM | TGI [5]: > 100 µM | TGI [6]: > 100 µM | TGI [7]: > 100 µM | TGI [8]: > 100 µM | TGI [9]: > 100 µM

CC(=O)Nc1ccc2c(C(=O)O)c(C)c(=O)[nH]c2n1
TGI [1]: > 100 µM | TGI [2]: > 100 µM | TGI [3]: > 100 µM | TGI [5]: > 100 µM | TGI [6]: > 100 µM | TGI [7]: > 100 µM | TGI [8]: > 100 µM | TGI [9]: > 100 µM | TGI [10]: > 100 µM

CCSc1ncnc2c(C3OC(CO)C(O)C3O)nsc12 (stereo not drawn)
TGI [2]: > 100 µM | TGI [3]: > 100 µM | TGI [4]: > 100 µM | TGI [5]: > 100 µM | TGI [6]: > 100 µM | TGI [7]: > 100 µM | TGI [8]: > 100 µM

C/C(O)=C/c1nc2ccccc2nc1/C=C(/C)O
TGI [1]: 47.7 µM | TGI [2]: 47.5 µM | TGI [3]: 71.5 µM | TGI [5]: 67.5 µM | TGI [6]: 93.2 µM | TGI [7]: 67.5 µM | TGI [8]: 40.1 µM | TGI [9]: 45.4 µM | TGI [10]: 56 µM

CCOC(=O)C1=CN=C2C(=O)N(c3ccccc3)N(C)C2(C)C1=N (stereo not drawn)
TGI [1]: > 100 µM | TGI [2]: > 100 µM | TGI [3]: > 100 µM | TGI [4]: > 100 µM | TGI [6]: > 100 µM | TGI [7]: > 100 µM | TGI [8]: > 100 µM | TGI [9]: > 100 µM | TGI [10]: > 100 µM

COC(=O)C1=C(C)N2CCCOC2(C)C(C(=O)OC)C1c1cccc(Cl)c1 (stereo not drawn)
TGI [1]: 93.3 µM | TGI [2]: 37.9 µM | TGI [3]: 89.3 µM | TGI [4]: > 100 µM | TGI [7]: 88.9 µM | TGI [8]: 36.6 µM | TGI [9]: 36.5 µM | TGI [10]: 71.2 µM

O=C1C=Cc2c(Cl)sc(Cl)c21
TGI [1]: 3.16 µM | TGI [3]: 16.8 µM | TGI [4]: 13.8 µM | TGI [6]: 5.32 µM | TGI [7]: 27.1 µM | TGI [8]: 5.32 µM | TGI [9]: 8.64 µM

O=S(=O)(c1ccccc1)n1c(C(O)c2ccncc2)cc2ccccc21 (stereo not drawn)
TGI [1]: > 100 µM | TGI [2]: > 100 µM | TGI [3]: > 100 µM | TGI [6]: > 100 µM | TGI [7]: > 100 µM | TGI [8]: > 100 µM | TGI [9]: 98.9 µM | TGI [10]: 44.7 µM

CC(C)(C)C#C[P+](c1ccccc1)(c1ccccc1)c1ccccc1
TGI [1]: 10.3 µM | TGI [2]: 0.397 µM | TGI [3]: 4.1 µM | TGI [4]: 0.986 µM | TGI [7]: 1.49 µM | TGI [8]: 1.45 µM | TGI [9]: 0.979 µM | TGI [10]: 7.28 µM

Cc1nc2c(cc1C(=O)NN)c(=O)n(C)c(=O)n2C
TGI [1]: > 100 µM | TGI [2]: > 100 µM | TGI [3]: > 100 µM | TGI [4]: > 100 µM | TGI [6]: > 100 µM | TGI [7]: > 100 µM | TGI [8]: > 100 µM | TGI [9]: > 100 µM | TGI [10]: > 100 µM

CC(=O)N1N=C(c2c(O)ccc3ccccc23)CC1C(=O)c1ccco1 (stereo not drawn)
TGI [1]: > 100 µM | TGI [2]: 86 µM | TGI [4]: > 100 µM | TGI [5]: > 100 µM | TGI [6]: > 100 µM | TGI [7]: > 100 µM | TGI [8]: 43.1 µM | TGI [9]: 32.8 µM | TGI [10]: > 100 µM

COC12C=C/C(=C(/C(=O)OCc3ccncn3)C(=O)CCCCCCCCC3(OC)C=C/C(=C(/C(=O)OCc4ccncn4)C(=O)CCCCCCCC1)O3)O2
GI50 [1]: 0.302 µM | TGI [1]: 1.14 µM | GI50 [2]: 0.348 µM | TGI [2]: 1.32 µM | GI50 [3]: 0.35 µM | TGI [3]: 2.34 µM | GI50 [4]: 0.225 µM | TGI [4]: 0.45 µM | GI50 [5]: 0.402 µM | TGI [5]: 5.11 µM | GI50 [6]: 0.417 µM | TGI [6]: 12.6 µM | GI50 [7]: 0.221 µM | TGI [7]: 0.703 µM | GI50 [8]: 0.428 µM | TGI [8]: 5.55 µM

Reference: PubChem BioAssay (NCI)
